Experimental data reported in patent US12508323B2, “Method of treatment of colorectal, breast and lung cancer with metal containing immune agonist complexes” (HANGZHOU XINGAO BIOTECHNOLOGY CO., LTD., priority 2020, dated 2025).

Assays:
Format in all cases: in vivo
[1] = system: breast cancer cell line 4T1; experiment: Subcutaneous transplantation tumor model, 4T1 in BALB/C mice; details: i.p. 10 mg/kg (nanobody 200 μg/mouse) once a day for 21 days
Procedure: Specific pathogen free (SPF)-grade BALB/C and C57BL/6 male mice, aged 7-8 weeks and weighing 20-22 g, were purchased from Shanghai Slac Laboratory Animal Co., Ltd (Laboratory animal quality certificate number: SCXK (Shanghai)2007-0005.
Mice were injected intraperitoneally with the immune agonist or complex with a dose of 10 mg/kg, or each injected intraperitoneally with 200 μg of the nanobody.
Administration route: intraperitoneal injection.
Frequency: once a day for consecutive 21 days.
Cancer cells were cultured, passaged, collected at the logarithmic phase of cells, and prepared into a cell suspension at a concentration of (1.0×10^7) per ml. Mice were injected with 0.2 ml of the cell suspension at the axilla of the right forelimb (cell number 2.0×10^6 cells/each), and were tumorigenic in about 8 days. These mice were randomly divided into 10 groups equally, namely, group A: negative control group (saline group), group B: positive control (cGAMP) group (dose: 10 mg/kg), group C: MncGAMP group (dose: 10 mg/kg), group D: anti-PD-L1 nanobody group, group E: anti-CD47 nanobody group, group F: anti-TfR1 nanobody group, group G: complex V group (dose: 10 mg/kg), group H: complex VI group (dose: 10 mg/kg), group I: complex IX group (dose: 10 mg/kg), and group J: complex VIII group (10 mg/kg). […]
The data were expressed as ×±s and processed by SPSS10.0 software. […]

[2] = system: OVA; experiment: Immune adjuvant function with OVA immunization (ELISA); details: values of log2; s.c. 10 μg OVA + 100 μg adjuvant on days 1, 7, 14; sampled day 21; C57BL/6 mice
Procedure: Specific pathogen free (SPF)-grade C57BL/6 male mice, aged 7-8 weeks and weighing 20-22 g, were purchased from American Animals Inc. The aluminum adjuvant and OVA were purchased from Invitrogen company.
The mice were divided into 7 groups (10 mice in each group), namely, group A: OVA+cGAMP; group B: OVA+MncGAMP; group C: OVA+complex VIII; group D: OVA+complex IV; group E: OVA+complex VII; group F: OVA+aluminum adjuvant; and group G: OVA.
Each mouse was injected subcutaneously with 10 μg of OVA and 100 μg of aluminum adjuvant or a different species of cGAMP (or the immune agonist complex), and those not injected were negative control groups. Immunization was performed once on days 1, 7, and 14, respectively, and lung lavage fluid was obtained and blood samples taken on day 21. The potency of the immune agonist and the complex as adjuvants to induce nanobody production was determined by ELISA, and the results were shown in Table 7.

[3] = system: APP/PS1 transgenic AD model mice; experiment: Morris water maze test in AD mice; details: 10 mg/kg i.p. once a day for 60 days, space exploration test
Procedure: APP/PS1 transgenic AD model mice were purchased from Southern Model Biotechnology Co., Ltd., which were 4 months in age, and 24-26 g in weight. […]
A circular pool was designed, which was 1 m in diameter, 50 cm in height, 30 cm deep, and white bottom. […] After the mice found the platform or could not find the platform within 90 seconds (the latency period was recorded as 90 seconds), they were guided to the platform by the experimenter and rested on the platform for 10 seconds before the next trial.
24 h after the end of the positioning navigation test, the platform was removed. Then the mice were put into the water from the third quadrant, and the swimming paths of the mice were recorded within 180 s. The residence time of the mice in the target quadrant (third quadrant) and the number of times they crossed the location of the original platform were recorded to observe the spatial orientation ability of the mice. […]

`Nc1nc(=O)c2ncn(C3OC4COP(=O)(O)OC5C(COP(=O)(O)OC3C4O)OC(n3cnc4c(N)ncnc43)C5O)c2[nH]1` (centres unmarked) [cGAMP, 2′3′-cGAMP] was tested, and the “Average tumor weight” value ([1]; n = 10, mean ± SD) was 0.862 ± 0.156 g, the “Average tumor inhibition rate (%)” value ([1]; vs negative control tumor weight) was 61.9% and the “Alveolar lavage fluid (IgA)” value [2] was 2.3 ± 0.2. For the same compound, the “Serum (IgG)” value [2] was 17.5 ± 0.9 and the “Percentage of time to cross the third quadrant platform in AD mice (%)” value [3] was 0.55 ± 0.10%.
